“Also recorded” adds a separate entry of the source.
Assays:
CD4+ and CD8+ T cells [1] = test: T cell degranulation, CD107a staining by FACS at 24h, SKM-1 + HLA-A2 WT-1-TCB; format: cell-based, human
Description: FIG. 13. In vitro killing assay set-up and timelines to assess T cell degranulation. PBMCs were co-cultured with SKM-1 target cells (E:T=5:1) and 10 nM HLA-A2 WT-1-TCB in the presence and absence of 100 nM dasatinib. Golgistop and Golgiplug (both BD) and CD107a antibody were added 3 hours after activation with TCB to prevent cytokine externalization.
FIG. 14. CD107a+ populations among CD4+ and CD8+ T cells in the presence and absence of dasatinib for one representative donor, in the assay of FIG. 13. Expression of CD107a on CD4+ and CD8+ T cells was measured by FACS at 24h.
FIG. 15. Percentages of CD107a+ cells among CD4+ (A) and CD8+ (B) T cells in the presence and absence of dasatinib in the assay of FIG. 13. Expression of CD107a on CD4+ and CD8+ T cells was measured by FACS at 24h. Mean of 3 donors+/−SD.
To assess whether dasatinib can efficiently prevent TCB-mediated target cell killing by activated T cells, we set up an in vitro killing assay with two stimulation steps, mimicking an ON/OFF switch. During the first stimulation, PBMCs were activated on carboxyfluorescein succinimidyl ester (CFSE)-labelled SKM-1 tumors cells with HLA-A2 WT-1-TCB in the absence of dasatinib (ON). During the second stimulation, activated PBMCs together with dead CFSE labelled SKM-1 tumors cells were washed and re-stimulated by HLA-A2 WT-1-TCB on fresh CTV labelled SKM-1 tumor cells in the presence of 100 nM dasatinib (OFF). The use of CFSE and CTV labelled SKM-1 tumors allowed to differentiate tumor cells used for first and second stimulation by flow cytometry (FIG. 8). […] Consistently, T cells were activated and functional before the addition of dasatinib in the system. 87.6% of CTV labelled SKM-1 cells were alive upon second stimulation with 10 nM HLA-A2 WT-1 TCB in the presence of 100 nM dasatinib, but only 2.04% of CTV labelled SKM-1 tumor cells were alive upon restimulation with 10 nM HLA-A2 WT-1-TCB in the absence of dasatinib (FIG. 10). […]

[2] = system: IFN-γ, IL-2 and TNF-α release; test: Cytokine release in supernatants of the CEA-TCB killing assay (Luminex, 96 hours); format: cell-based, human; conditions: dasatinib above 12.5 nM, 1 nM CEA-TCB
Description: Cytokine release. Supernatant were collected at the endpoint (96 hours) of the assay in FIG. 1 and cytokines ((A) IFNγ, (B) IL-2, (C) TNF-α) measured by multiplex cytokine analysis (Luminex). 1 nM CEA-TCB, 1 donor.

[3] = system: IL-2, IFN-γ, TNF-α, IL-6, GM-CSF and IL-8 release; test: CD19-TCB-induced cytokine release in the SUDLH-8 assay (Luminex); format: cell-based, human; conditions: 100 nM dasatinib, monohydrate
Description: The levels of IL-2 (A), IFN-γ (B), TNF-α (C), IL-6 (D), GM-CSF (E) and IL-8 (F) were measured by Luminex in the supernatant of the assay described in FIG. 26.
FIG. 31. […] The levels of IFN-γ (A), TNF-α (B), IL-2 (C), IL-6 (D), GM-CSF (E) and IL-8 (F) were measured by Luminex in the supernatant of the assay described in FIG. 26.
The killing of CTV labelled SUDLH-8 cells was measured by flow cytometry using a Live/Dead Near Infra Red (NIR) dye. […] The expression of CD69 and CD25 were measured on CD4+ (FIG. 28) and CD8+(FIG. 29) T cells by flow cytometry as a readout for T cell activation. […] Lastly, the cytokine levels were analyzed in the supernatants of the assay by Luminex to evaluate the effect of dasatinib on CD19-TCB-induced cytokine release (FIGS. 30 and 31).

CD4+ and CD8+ T cells [4] = test: T cell activation (CD25, CD69 by FACS) in SKM-1 killing assay with HLA-A2 WT-1-TCB, dasatinib added after 24 hours; format: cell-based, human; conditions: 48 hours; 100 nM dasatinib added at 24h; 10 nM HLA-A2 WT-1-TCB
Description: FIG. 3. In vitro killing assay set-up and timelines. PBMCs were co-cultured with SKM-1 target cells (E:T=10:1) and 10 nM HLA-A2 WT-1-TCB. Dasatinib (100 nM) was added after 24 hours of activation. PBMCs were labelled with CellTrace™ Violet (CTV) to allow T cell proliferation assessment.
FIG. 4. T cell activation. CD25 and CD69 expression on CD4+ and CD8+ T cells was measured by FACS after 24h and 48h of activation in the presence and absence of dasatinib, according to the assay of FIG. 3. (A) CD25 expression on CD8+ T cells, (B) CD25 expression on CD4+ T-cells, (C) CD69 expression on CD8+ T cells, (D) CD69 expression on CD4+ T cells.
To evaluate if dasatinib could act as a rapid and potent inhibitor of activated T cells, we first stimulated PBMCs on SKM-1 tumor cells with HLA-A2 WT-1-TCB for 24 hours. We then supplemented these activated effector cells with 100 nM dasatinib (FIG. 3).
Upon addition of 100 nM dasatinib at 24h, expression of early activation marker CD69 and late activation marker CD25 on CD4+ and CD8+ T cells at 48 hours was found at an intermediate level between expression measured at 24 hours and expression measured at 48 hours in samples with no dasatinib treatment (FIG. 4).

[5] = system: IL-2, TNF-α, IFN-γ and IL-6; test: CD19-TCB induced serum cytokine release in humanized NSG mice (Luminex); format: in vivo; conditions: 1.5 and 6 hrs post treatment, 50 mg/kg dasatinib p.o., monohydrate
Description: Humanized NSG mice were co-treated with 0.5 mg/kg CD19-TCB (i.v.) and 50 mg/kg dasatinib (p.o.) twice per day. Blood was collected by tail vein bleeding at 1.5 hrs, 6 hrs and 48 hrs after treatment with CD19-TCB. At 72 hrs, blood was collected retro-orbitally, before the termination of the experiment. N=4 mice per group.
Serum was collected from blood samples collected 1.5 hrs post treatment with CD19-TCB in the experiment described in FIG. 32. The levels of IL-2 (A), TNF-α (B), IFN-γ (C) and IL-6 (D) are measured by Luminex. Mean of n=4 mice+/−SEM. One way ANOVA, Kruskal Wallis test, p-value: 0.1234 (ns), 0.0332 (*), 0.0021 (**), 0.0001 (***), <0.0001 (****).
Serum is collected from blood samples collected 6 hrs post treatment with CD19-TCB in the experiment described in FIG. 32. The levels of IL-2 (A), TNF-α (B), IFN-γ (C) and IL-6 (D) are measured by Luminex. Mean of n=4 mice+/−SEM. One way ANOVA, Kruskal Wallis test, p-value: 0.1234 (ns), 0.0332 (*), 0.0021 (**), 0.0001 (***), <0.0001 (****).
To best mimick the pharmacodynamic profile of dasatinib in the clinic and to verify whether the resulting exposure would be sufficient to prevent CD19-TCB-induced T cell cytotoxicity and cytokine release, dasatinib was given per os twice per day.
Lastly, mice were bled 1.5 and 6 hrs post treatment with CD19-TCB and dasatinib to collect serum for cytokine measurements by Luminex (FIGS. 35 and 36).

[6] = 10 nM HLA-A2 WT-1-TCB + 100 nM dasatinib, 24h, one representative donor

Compound: Cc1nc(Nc2ncc(C(=O)Nc3c(C)cccc3Cl)s2)cc(N2CCN(CCO)CC2)n1 [dasatinib, N-(2-chloro-6-methylphenyl)-2-[[6-[4-(2-hydroxyethyl)-1-piperazinyl]-2-methyl-4-pyrimidinyl]amino]-5-thiazole carboxamide monohydrate]
- cells positive for CD107a among CD4+ T cells (CD4+ and CD8+ T cells [1]; [6]): 1.22%
- cells positive for CD107a among CD8+ T cells (CD4+ and CD8+ T cells [1]; [6]): 2.08%
- TCB-induced CD107a expression on CD4+ and CD8+ T cells (CD4+ and CD8+ T cells [1]; 100 nM dasatinib, 3 donors): prevented
- release of IFN-γ, IL-2 and TNF-α [2]: prevented the release
- release of IL-2, IFN-γ, TNF-α, IL-6, GM-CSF and IL-8 [3]: prevents CD19-TCB-induced cytokine release; also recorded: prevented the release
- CD25 and CD69 expression on CD4+ and CD8+ T cells (CD4+ and CD8+ T cells [4]): rapidly blocked the expression of phenotypic activation markers
- CD19-TCB-induced serum IL-2, TNF-α, IFN-γ and IL-6 ([5]; listed as Dasatinib): prevents CD19-TCB induced cytokine release in vivo
- CD19-TCB-induced serum IL-2, TNF-α, IFN-γ and IL-6 [5]: inhibited

Source: patent publication US20220088195A1, “Prevention or mitigation of T-cell bispecific antibody-related adverse effects” (Hoffmann-La Roche Inc., priority 2020, published 2022)
